Test results as given in patent US20230278972A1, “SUBSTITUTED HALOALKYL SULFONANILIDE HERBICIDES” (FMC Corporation, priority 2020, published 2023).

Assays:
Type in all cases: in vivo
[1] = test system: wheat (Triticum aestivum); experiment: Test A1 postemergence, wheat; settings: Postemergence
Summary of the method: (§1)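 Herbicidal response was scored on plants treated either preemergence, by directed spray onto soil of a loam–sand blend after sowing, or postemergence on potted plants at the one- to two-leaf stage, 2–10 cm high. Test chemicals were carried in a non-phytotoxic solvent mix with surfactant.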

[2] = test system: Pigweed, Palmer (palmer amaranth, palmer pigweed, Amaranthus palmeri); experiment: Test A1 preemergence, Pigweed, Palmer
Summary of the method: (§2)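 Seeds were first planted into a blend of loam soil and sand and given a preemergence directed soil spray. In parallel, pots of the same soil were sown for postemergence application once plants reached 2 to 10 cm and the one- to two-leaf stage. Both used surfactant-containing non-phytotoxic solvent formulations.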

corn (Zea mays) = experiment: Test A1 postemergence, corn; settings: Postemergence
Summary of the method: as §2

[3] = test system: ducksalad (Heteranthera limosa); experiment: Test B1 flooded paddy test, ducksalad; settings: 250 g ai/ha, Flood, applied to paddy water, 2-leaf stage, visually evaluated after 10 to 14 days
Description: A dash (-) response means no test result.

[4] = test system: Ryegrass, Italian (Italian ryegrass, Lolium multiflorum); experiment: Test A1 preemergence, Ryegrass, Italian
Summary of the method: as §2

soybean (Glycine max) = experiment: Test A1 preemergence, soybean
Summary of the method: as §2

[5] = test system: galium (catchweed bedstraw, Galium aparine); experiment: Test A1 postemergence, galium; settings: Postemergence
Summary of the method: as §1

[6] = 31 g ai/ha, 0 to 100 scale (0 no effect, 100 complete control), 10 days
[7] = 31 g ai/ha, 0 to 100 scale (0 no effect, 100 complete control)
[8] = 125 g ai/ha, 0 to 100 scale, 0 no effect, 100 complete control

| SMILES | Plant response rating, Wheat [1, 6] | Plant response rating, Wheat ([1]; 125 g ai/ha, 0 to 100 scale) | Plant response rating, Pigweed, Palmer [2, 7] | Plant response rating, Pigweed, Palmer [2, 8] | Plant response rating, Corn (corn (Zea mays); [6]) | Plant response rating, Corn (corn (Zea mays); 125 g ai/ha, 0 to 100 scale) | Plant response rating, Ducksalad (0 to 100 scale, 0 is no effect, 100 is complete control) [3] | Plant response rating, Ryegrass, Italian [4, 7] | Plant response rating, Ryegrass, Italian [4, 8] | Plant response rating, Soybean (soybean (Glycine max); [7]) | Plant response rating, Soybean (soybean (Glycine max); [8]) | Plant response rating, Galium [5, 6] | Plant response rating, Galium ([5]; 125 g ai/ha, 0 to 100 scale) |
| --- | --- | --- | --- | --- | --- | --- | --- | --- | --- | --- | --- | --- | --- |
| Cc1cc(C)c(N(COC(=O)OC(C)C)S(=O)(=O)C(F)(F)F)cc1C1=NOC2CCCC12 (centres unmarked) [Compound 314] | 50 | 70 | 70 | 70 | 0 | 30 | 90 | 40 | 90 | 20 | 40 | 60 | 70 |
| CCOC1CC(c2cc(NS(=O)(=O)C(F)(F)F)c(C)cc2C)=NO1 (centres unmarked) [Compound 318] | 50 | 70 | 80 | 100 | 30 | 60 | 80 | 50 | 90 | 0 | 30 | 60 | 60 |
| Cc1cc(C2CC2)c(C2=NOC3CCCC23)cc1N(COC(=O)C(C)(C)C)S(=O)(=O)C(F)(F)F (centres unmarked) [Compound 355] | 20 | 50 | 0 | 70 | 0 | 20 | 45 | 20 | 30 | 20 | 30 | 40 | 60 |
| CCOC(=O)N(c1cc(C(=O)N2CCOCC2)c(C)c(C)c1C)S(=O)(=O)C(F)(F)F [Compound 325] | 30 | 50 | 80 | 100 | 10 | 30 | 95 | 40 | 90 | 0 | 60 | 40 | 90 |
| Cc1c(C(=O)N2C[C@@H](C)O[C@@H](C)C2)cc(N(COC(=O)C(C)(C)C)S(=O)(=O)C(F)(F)F)c(C)c1C [Compound 331] | 0 | 50 | 0 | 30 | 10 | 50 | 80 | 0 | 0 | 0 | 10 | 60 | 90 |
| CCCCOC1CC(c2cc(NS(=O)(=O)C(F)(F)F)c(C)cc2C)=NO1 (centres unmarked) [Compound 323] | 0 | 50 | 90 | 100 | 0 | 0 | 0 | 40 | 90 | 0 | 0 | 50 | 80 |
| COc1cc(C)c(NS(=O)(=O)C(F)(F)F)cc1C1=NOC2CCCC12 (centres unmarked) [Compound 312] | 0 | 0 | 0 | 0 | 0 | 0 | 0 | 0 | 40 | 0 | 50 | 0 | 30 |
| Cc1cc(C)c(N(COC(=O)C(C)(C)C)S(=O)(=O)C(F)(F)F)cc1C1=NOC2OCCC12 (centres unmarked) [Compound 352] | 0 | 50 | 70 | 100 | 20 | 80 | 65 | 20 | 100 | 30 | 40 | 100 | 100 |
| Cc1cc(Br)c(C2=NOC3CCCC23)cc1NS(=O)(=O)C(F)(F)F (centres unmarked) [Compound 302] | 0 | 10 | 20 | 50 | 0 | 0 | 70 | 50 | 90 | 0 | 20 | 0 | 0 |
| C#CCN(C)C(=O)c1cc(NS(=O)(=O)C(F)(F)F)c(Cl)c(F)c1C [Compound 337] | 0 | 30 | 40 | 100 | 30 | 40 | 65 | 30 | 100 | 40 | 90 | 70 | 100 |
| COC(=O)OCN(c1cc(C2=NOC3CCCC23)c(C)cc1C)S(=O)(=O)C(F)(F)F (centres unmarked) [Compound 315] | 30 | 70 | 100 | 90 | 20 | 20 | 90 | 70 | 100 | 40 | 50 | 70 | 90 |
| Cc1c(NS(=O)(=O)C(F)(F)F)cc(C(=O)N2CC(C)OC(C)C2)c(C)c1C (centres unmarked) [Compound 328] | 0 | 50 | 100 | 100 | 0 | 50 | 90 | 30 | 100 | 50 | 90 | 80 | 100 |
| Cc1cc(C)c(C2=NOC3OCCC23)cc1NS(=O)(=O)C(F)(F)F (centres unmarked) [Compound 349] | 30 | 70 | 100 | 100 | 40 | 90 | 80 | 70 | 80 | 20 | 60 | 100 | 100 |
| CCOC(=O)N(c1cc(C(=O)N2CCC(c3ccccc3)CC2)c(C)cc1C)S(=O)(=O)C(F)(F)F [Compound 365] | 0 | 20 | 30 | 30 | 0 | 0 | 25 | 0 | 30 | 0 | 0 | 40 | 80 |
| Cc1c(C(=O)N2CCCCC2)cc(NS(=O)(=O)C(F)(F)F)c(Cl)c1F [Compound 333] | 0 | 30 | 90 | 100 | 0 | 0 | 70 | 30 | 50 | 40 | 60 | 70 | 90 |
| COC1CCCN(C(=O)c2cc(NS(=O)(=O)C(F)(F)F)c(Cl)c(F)c2C)C1 (centres unmarked) [Compound 334] | 0 | 0 | 20 | 70 | 0 | 0 | 60 | 30 | 50 | 0 | 30 | 60 | 60 |
| Cc1cc(C)c(N(COC(=O)C(C)(C)C)S(=O)(=O)C(F)(F)F)cc1C1=NOC2COCC12 (centres unmarked) [Compound 301] | 0 | 60 | 10 | 40 | 0 | 30 | 50 | 20 | 90 | 0 | 20 | 70 | 90 |
